Measurements from PMC5513037, “Examining the influence of specificity ligands and ATP-competitive ligands on the overall effectiveness of bivalent kinase inhibitors” (Proteome Science, 2017).
pIC50: −log10 of the molar value.

Legend:
[1] = biological target: T1, RIOK1 (Homo sapiens, UniProt Q9BRS2); assay: KAM-matrix competition in K562 lysate; format: binding;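 as to 0.001 uM KAM: median log10 fold change of treatment over DMSO control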;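 as to 0.01 uM KAM: median log10 fold change of treatment over DMSO control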;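 as to 0.1 uM KAM: median log10 fold change of treatment over DMSO control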;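 as to 1 uM KAM: median log10 fold change of treatment over DMSO control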;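 as to 10 uM KAM: median log10 fold change of treatment over DMSO control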
T1 construct: endogenous in cells; host or cells: K562
T1 sequence (Q9BRS2 1-568): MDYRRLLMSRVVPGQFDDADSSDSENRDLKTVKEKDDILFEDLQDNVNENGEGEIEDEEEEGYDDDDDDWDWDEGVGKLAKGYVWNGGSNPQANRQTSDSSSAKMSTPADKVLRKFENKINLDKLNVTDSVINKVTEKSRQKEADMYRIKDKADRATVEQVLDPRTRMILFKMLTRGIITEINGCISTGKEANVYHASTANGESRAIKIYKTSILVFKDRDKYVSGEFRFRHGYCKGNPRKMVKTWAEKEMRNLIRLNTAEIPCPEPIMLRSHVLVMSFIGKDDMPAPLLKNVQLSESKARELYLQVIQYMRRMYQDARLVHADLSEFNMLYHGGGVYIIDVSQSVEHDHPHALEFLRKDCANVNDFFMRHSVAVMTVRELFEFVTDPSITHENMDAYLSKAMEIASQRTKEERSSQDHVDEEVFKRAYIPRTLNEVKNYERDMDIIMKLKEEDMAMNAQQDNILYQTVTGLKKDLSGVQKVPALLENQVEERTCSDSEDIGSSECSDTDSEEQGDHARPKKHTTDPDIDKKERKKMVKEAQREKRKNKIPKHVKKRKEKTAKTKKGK
Experimental: (§1) Supplement 12953_2017_125_MOESM1_ESM.zip/MS_Supp Info.xlsx, sheet "KAM" | column: 10 uM KAM; 1 uM KAM; 0.1 uM KAM; 0.01 uM KAM; 0.001 uM KAM; RB50

[2] = biological target: T2, MAP2K7 (Homo sapiens, UniProt O14733); assay: KAM-matrix competition in K562 lysate; format: binding;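 as to 0.001 uM KAM: median log10 fold change of treatment over DMSO control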;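 as to 0.01 uM KAM: median log10 fold change of treatment over DMSO control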;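 as to 0.1 uM KAM: median log10 fold change of treatment over DMSO control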;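 as to 1 uM KAM: median log10 fold change of treatment over DMSO control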;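 as to 10 uM KAM: median log10 fold change of treatment over DMSO control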
T2 construct: endogenous in cells; host or cells: K562
T2 sequence (O14733 1-419): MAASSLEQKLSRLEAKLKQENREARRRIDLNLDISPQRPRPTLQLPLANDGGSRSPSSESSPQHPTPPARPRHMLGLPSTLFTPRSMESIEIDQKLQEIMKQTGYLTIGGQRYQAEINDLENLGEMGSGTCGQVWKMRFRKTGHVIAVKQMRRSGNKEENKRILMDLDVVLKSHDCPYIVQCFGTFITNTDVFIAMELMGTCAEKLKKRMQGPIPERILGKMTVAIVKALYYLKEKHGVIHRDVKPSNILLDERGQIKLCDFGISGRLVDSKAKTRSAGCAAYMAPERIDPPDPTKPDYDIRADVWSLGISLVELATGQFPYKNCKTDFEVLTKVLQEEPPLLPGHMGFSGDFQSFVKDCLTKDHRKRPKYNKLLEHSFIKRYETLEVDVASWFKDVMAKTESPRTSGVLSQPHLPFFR
Experimental: as §1

[3] = biological target: T3, PKD1 (Homo sapiens, UniProt P98161); assay: KAM-matrix competition in K562 lysate; format: binding;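 as to 0.001 uM KAM: median log10 fold change of treatment over DMSO control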;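 as to 0.01 uM KAM: median log10 fold change of treatment over DMSO control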;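 as to 0.1 uM KAM: median log10 fold change of treatment over DMSO control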;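 as to 1 uM KAM: median log10 fold change of treatment over DMSO control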;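 as to 10 uM KAM: median log10 fold change of treatment over DMSO control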
T3 construct: endogenous in cells; host or cells: K562
Experimental: as §1

[4] = biological target: T4, SRC (Homo sapiens, UniProt P12931); assay: KAM-matrix competition in K562 lysate; format: binding
T4 construct: endogenous in cells; host or cells: K562
T4 sequence (P12931 whole entry): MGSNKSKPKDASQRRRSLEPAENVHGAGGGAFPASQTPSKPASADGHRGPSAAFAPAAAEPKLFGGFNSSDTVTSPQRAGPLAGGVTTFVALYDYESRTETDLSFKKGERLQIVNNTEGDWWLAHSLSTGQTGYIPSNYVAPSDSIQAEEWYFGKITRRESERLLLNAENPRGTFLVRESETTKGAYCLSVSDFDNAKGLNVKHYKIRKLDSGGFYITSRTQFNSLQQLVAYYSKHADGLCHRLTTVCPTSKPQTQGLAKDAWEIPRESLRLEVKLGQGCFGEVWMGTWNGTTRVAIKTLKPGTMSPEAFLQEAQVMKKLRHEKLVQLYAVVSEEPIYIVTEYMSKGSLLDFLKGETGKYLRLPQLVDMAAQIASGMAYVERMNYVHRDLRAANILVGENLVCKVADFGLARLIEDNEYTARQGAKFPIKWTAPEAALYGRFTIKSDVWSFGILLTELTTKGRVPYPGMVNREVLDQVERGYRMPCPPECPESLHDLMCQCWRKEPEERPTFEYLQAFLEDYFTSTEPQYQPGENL
Experimental: as §1

[5] = biological target: T5, MAP4K5 (Homo sapiens, UniProt Q9Y4K4); assay: KAM-matrix competition in K562 lysate; format: binding
T5 construct: endogenous in cells; host or cells: K562
T5 sequence (Q9Y4K4 whole entry): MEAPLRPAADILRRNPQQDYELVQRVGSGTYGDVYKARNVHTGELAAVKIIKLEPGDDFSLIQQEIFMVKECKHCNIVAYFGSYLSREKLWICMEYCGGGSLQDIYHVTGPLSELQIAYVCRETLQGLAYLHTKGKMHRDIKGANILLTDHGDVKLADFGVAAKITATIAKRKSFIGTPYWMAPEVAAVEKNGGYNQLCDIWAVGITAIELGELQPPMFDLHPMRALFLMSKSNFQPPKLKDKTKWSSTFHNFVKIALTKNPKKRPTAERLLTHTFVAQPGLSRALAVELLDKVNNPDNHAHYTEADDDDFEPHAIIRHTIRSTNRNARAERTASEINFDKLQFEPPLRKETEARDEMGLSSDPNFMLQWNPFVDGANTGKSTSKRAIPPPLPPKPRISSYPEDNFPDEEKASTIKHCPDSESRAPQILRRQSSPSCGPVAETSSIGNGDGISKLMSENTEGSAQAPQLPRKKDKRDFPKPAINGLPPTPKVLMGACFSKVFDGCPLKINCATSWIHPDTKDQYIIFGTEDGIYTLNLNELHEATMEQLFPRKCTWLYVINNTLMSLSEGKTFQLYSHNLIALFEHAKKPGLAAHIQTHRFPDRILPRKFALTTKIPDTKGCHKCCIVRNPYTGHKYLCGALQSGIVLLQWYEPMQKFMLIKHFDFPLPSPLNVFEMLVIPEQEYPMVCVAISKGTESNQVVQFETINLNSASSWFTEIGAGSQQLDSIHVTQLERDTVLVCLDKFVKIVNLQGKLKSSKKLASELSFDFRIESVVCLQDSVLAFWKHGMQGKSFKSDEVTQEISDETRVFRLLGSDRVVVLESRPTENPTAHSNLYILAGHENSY
Experimental: as §1

[6] = biological target: T6, AURKA (Homo sapiens, UniProt O14965); assay: KAM-matrix competition in K562 lysate; format: binding
T6 construct: endogenous in cells; host or cells: K562
T6 sequence (O14965 1-403): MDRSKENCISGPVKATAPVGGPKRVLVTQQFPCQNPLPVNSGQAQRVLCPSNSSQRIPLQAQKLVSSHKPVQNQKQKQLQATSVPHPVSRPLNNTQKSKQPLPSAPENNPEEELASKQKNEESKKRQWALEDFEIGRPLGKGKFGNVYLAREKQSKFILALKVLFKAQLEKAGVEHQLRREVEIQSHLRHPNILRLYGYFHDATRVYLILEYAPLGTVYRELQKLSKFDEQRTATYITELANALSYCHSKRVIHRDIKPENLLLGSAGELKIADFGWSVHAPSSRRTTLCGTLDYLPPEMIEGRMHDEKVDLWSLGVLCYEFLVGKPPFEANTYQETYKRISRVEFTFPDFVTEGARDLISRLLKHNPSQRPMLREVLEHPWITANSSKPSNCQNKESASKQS
Experimental: as §1

[7] = biological target: T7, MAPK9 (Homo sapiens, UniProt P45984); assay: KAM-matrix competition in K562 lysate; format: binding
T7 construct: endogenous in cells; host or cells: K562
T7 sequence (P45984 whole entry): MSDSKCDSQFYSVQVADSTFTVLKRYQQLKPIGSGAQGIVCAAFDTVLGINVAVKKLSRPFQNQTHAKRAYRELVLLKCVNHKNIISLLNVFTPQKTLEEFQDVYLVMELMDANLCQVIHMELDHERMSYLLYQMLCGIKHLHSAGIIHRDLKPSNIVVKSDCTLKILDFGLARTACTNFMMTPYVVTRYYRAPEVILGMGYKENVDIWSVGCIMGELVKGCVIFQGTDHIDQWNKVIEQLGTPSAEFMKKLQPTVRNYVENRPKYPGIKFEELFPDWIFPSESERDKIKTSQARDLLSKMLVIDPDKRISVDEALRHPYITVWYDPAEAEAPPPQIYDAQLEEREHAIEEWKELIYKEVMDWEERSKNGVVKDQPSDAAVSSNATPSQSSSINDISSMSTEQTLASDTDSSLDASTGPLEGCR
Experimental: as §1

[8] = biological target: T8, MAP4K4 (Homo sapiens, UniProt O95819); assay: KAM-matrix competition in K562 lysate; format: binding;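 as to 0.001 uM KAM: median log10 fold change of treatment over DMSO control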;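 as to 0.01 uM KAM: median log10 fold change of treatment over DMSO control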;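 as to 0.1 uM KAM: median log10 fold change of treatment over DMSO control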;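 as to 1 uM KAM: median log10 fold change of treatment over DMSO control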;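 as to 10 uM KAM: median log10 fold change of treatment over DMSO control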
T8 construct: endogenous in cells; host or cells: K562
T8 sequence (O95819 whole entry): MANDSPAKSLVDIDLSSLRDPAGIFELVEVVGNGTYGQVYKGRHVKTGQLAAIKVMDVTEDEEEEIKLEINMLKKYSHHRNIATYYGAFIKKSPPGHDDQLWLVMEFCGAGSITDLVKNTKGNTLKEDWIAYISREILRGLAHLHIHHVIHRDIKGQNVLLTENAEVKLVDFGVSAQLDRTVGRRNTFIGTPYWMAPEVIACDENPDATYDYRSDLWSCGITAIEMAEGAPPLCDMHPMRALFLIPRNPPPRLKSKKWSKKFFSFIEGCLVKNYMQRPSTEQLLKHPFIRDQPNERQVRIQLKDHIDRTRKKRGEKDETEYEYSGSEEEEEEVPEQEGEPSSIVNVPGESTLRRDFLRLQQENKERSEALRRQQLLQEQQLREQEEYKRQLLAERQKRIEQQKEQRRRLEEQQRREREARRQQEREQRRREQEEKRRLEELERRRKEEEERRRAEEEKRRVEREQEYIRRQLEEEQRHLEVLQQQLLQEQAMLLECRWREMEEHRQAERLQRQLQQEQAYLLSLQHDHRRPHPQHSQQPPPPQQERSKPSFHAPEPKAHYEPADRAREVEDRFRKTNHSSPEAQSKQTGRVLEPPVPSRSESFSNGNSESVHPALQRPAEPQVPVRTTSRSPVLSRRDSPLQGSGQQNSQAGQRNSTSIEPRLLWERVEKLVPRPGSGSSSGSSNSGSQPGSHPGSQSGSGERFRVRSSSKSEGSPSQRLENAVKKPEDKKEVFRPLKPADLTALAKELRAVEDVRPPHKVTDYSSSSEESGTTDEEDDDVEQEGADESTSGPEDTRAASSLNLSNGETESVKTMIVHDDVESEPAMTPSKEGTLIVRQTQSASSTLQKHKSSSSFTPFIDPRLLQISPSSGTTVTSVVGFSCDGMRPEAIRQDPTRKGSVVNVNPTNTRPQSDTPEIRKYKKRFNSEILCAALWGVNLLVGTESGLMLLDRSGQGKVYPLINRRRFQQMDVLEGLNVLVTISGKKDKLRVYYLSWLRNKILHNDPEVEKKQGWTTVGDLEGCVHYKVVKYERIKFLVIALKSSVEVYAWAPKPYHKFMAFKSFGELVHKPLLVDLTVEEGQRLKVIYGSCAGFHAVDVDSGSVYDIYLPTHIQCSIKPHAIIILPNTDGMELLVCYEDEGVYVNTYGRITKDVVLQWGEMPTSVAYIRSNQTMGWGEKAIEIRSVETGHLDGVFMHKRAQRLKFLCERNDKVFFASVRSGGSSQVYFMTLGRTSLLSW
Experimental: as §1

[9] = biological target: T9, PRKCA (Homo sapiens, UniProt P17252); assay: KAM-matrix competition in K562 lysate; format: binding
T9 construct: endogenous in cells; host or cells: K562 lysate
Experimental: as §1

[10] = biological target: T10, ROCK1 (Homo sapiens, UniProt Q13464); assay: KAM-matrix competition in K562 lysate; format: binding;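 as to 0.001 uM KAM: median log10 fold change of treatment over DMSO control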;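 as to 0.01 uM KAM: median log10 fold change of treatment over DMSO control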;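 as to 0.1 uM KAM: median log10 fold change of treatment over DMSO control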;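 as to 1 uM KAM: median log10 fold change of treatment over DMSO control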;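 as to 10 uM KAM: median log10 fold change of treatment over DMSO control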
T10 construct: endogenous in cells; host or cells: K562
T10 sequence (Q13464 whole entry): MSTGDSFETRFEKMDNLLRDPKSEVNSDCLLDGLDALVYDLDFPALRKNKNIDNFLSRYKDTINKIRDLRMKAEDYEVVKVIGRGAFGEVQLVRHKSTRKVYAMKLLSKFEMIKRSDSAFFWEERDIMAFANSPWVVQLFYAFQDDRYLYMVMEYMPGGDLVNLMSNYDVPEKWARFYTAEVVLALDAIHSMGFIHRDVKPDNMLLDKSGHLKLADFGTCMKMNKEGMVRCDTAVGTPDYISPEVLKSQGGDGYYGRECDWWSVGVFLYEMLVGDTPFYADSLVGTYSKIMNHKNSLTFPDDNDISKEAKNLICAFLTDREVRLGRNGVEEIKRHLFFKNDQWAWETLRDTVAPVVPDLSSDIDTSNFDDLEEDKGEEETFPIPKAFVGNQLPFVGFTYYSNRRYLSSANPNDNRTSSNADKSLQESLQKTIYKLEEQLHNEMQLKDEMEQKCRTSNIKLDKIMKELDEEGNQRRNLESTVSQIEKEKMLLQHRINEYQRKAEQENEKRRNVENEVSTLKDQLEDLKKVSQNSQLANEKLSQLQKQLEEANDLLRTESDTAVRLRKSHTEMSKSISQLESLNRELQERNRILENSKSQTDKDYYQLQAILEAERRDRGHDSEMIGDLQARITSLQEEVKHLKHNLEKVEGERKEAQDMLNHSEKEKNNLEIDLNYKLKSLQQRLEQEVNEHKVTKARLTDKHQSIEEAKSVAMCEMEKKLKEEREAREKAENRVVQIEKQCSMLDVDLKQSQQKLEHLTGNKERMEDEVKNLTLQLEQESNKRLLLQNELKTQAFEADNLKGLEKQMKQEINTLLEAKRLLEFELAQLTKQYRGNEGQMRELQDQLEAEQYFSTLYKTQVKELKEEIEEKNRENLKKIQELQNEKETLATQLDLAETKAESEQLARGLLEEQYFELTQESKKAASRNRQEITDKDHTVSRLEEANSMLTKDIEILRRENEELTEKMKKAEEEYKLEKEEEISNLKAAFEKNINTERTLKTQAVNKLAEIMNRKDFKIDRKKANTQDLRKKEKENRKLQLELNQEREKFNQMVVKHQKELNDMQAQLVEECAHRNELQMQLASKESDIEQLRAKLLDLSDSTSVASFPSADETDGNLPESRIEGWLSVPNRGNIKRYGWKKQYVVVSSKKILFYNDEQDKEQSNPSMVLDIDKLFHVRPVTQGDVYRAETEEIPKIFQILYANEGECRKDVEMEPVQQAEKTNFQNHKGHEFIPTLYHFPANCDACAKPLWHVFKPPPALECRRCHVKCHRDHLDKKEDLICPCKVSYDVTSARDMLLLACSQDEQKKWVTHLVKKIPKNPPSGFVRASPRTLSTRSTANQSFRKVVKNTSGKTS
Experimental: as §1

[11] = KAM-matrix competition in K562 lysate; format: binding, human; settings: read-out: RB50 (the source's name)
Experimental: as §1

[12] = KAM 0.001-10 uM, read-out: RB50 (the source's name)
[13] = read-out: RB50 (the source's name)

N#CCc1ccc(Nc2nc(NCCCN)cc(Nc3cc(C4CC4)[nH]n3)n2)cc1 [KAM]
pIC50 [1, 12]: < 5.00 | 0.001 uM KAM ([1]; relative to 0 uM KAM = 0): -0.005877 | 0.01 uM KAM ([1]; relative to 0 uM KAM = 0): -0.06085 | 0.1 uM KAM ([1]; relative to 0 uM KAM = 0): -0.03934 | 1 uM KAM ([1]; relative to 0 uM KAM = 0): 0.04921 | 10 uM KAM ([1]; relative to 0 uM KAM = 0): -0.001737 | pIC50 [2, 12]: < 5.00 | 0.001 uM KAM ([2]; relative to 0 uM KAM = 0): 0.00178 | 0.01 uM KAM ([2]; relative to 0 uM KAM = 0): -0.02319 | 0.1 uM KAM ([2]; relative to 0 uM KAM = 0): -0.04803 | 1 uM KAM ([2]; relative to 0 uM KAM = 0): -0.07056 | 10 uM KAM ([2]; relative to 0 uM KAM = 0): -0.08653 | pIC50 [3, 12]: < 5.00 | 0.001 uM KAM ([3]; relative to 0 uM KAM = 0): -0.05857 | 0.01 uM KAM ([3]; relative to 0 uM KAM = 0): 0.006072 | 0.1 uM KAM ([3]; relative to 0 uM KAM = 0): -0.01241 | 1 uM KAM ([3]; relative to 0 uM KAM = 0): -0.0439 | 10 uM KAM ([3]; relative to 0 uM KAM = 0): 0.04844 | median Log10 fold change ([4]; 0.001 uM KAM): -0.003111 | median Log10 fold change ([4]; 0.01 uM KAM): -0.02243 | median Log10 fold change ([4]; 0.1 uM KAM): -0.1125 | median Log10 fold change ([4]; 1 uM KAM): -0.3083 | median Log10 fold change ([4]; 10 uM KAM): -0.5006 | pIC50 [4, 13]: 5.96 | median Log10 fold change ([5]; 0.001 uM KAM): 0.009454 | median Log10 fold change ([5]; 0.01 uM KAM): -0.01011 | median Log10 fold change ([5]; 0.1 uM KAM): -0.2304 | median Log10 fold change ([5]; 1 uM KAM): -0.4191 | median Log10 fold change ([5]; 10 uM KAM): -0.5735 | pIC50 [5, 13]: 6.48 | median Log10 fold change ([6]; 0.001 uM KAM): 0.0112 | median Log10 fold change ([6]; 0.01 uM KAM): -0.01229 | median Log10 fold change ([6]; 0.1 uM KAM): -0.2365 | median Log10 fold change ([6]; 1 uM KAM): -0.473 | median Log10 fold change ([6]; 10 uM KAM): -0.552 | pIC50 [6, 13]: 6.59 | median Log10 fold change ([7]; 0.001 uM KAM): -0.01416 | median Log10 fold change ([7]; 0.01 uM KAM): -0.02342 | median Log10 fold change ([7]; 0.1 uM KAM): -0.0954 | median Log10 fold change ([7]; 1 uM KAM): -0.2518 | median Log10 fold change ([7]; 10 uM KAM): -0.4014 | pIC50 [7, 13]: 5.68 | pIC50 [8, 12]: < 5.00 | 0.001 uM KAM ([8]; relative to 0 uM KAM = 0): -0.04181 | 0.01 uM KAM ([8]; relative to 0 uM KAM = 0): -0.007384 | 0.1 uM KAM ([8]; relative to 0 uM KAM = 0): -0.1078 | 1 uM KAM ([8]; relative to 0 uM KAM = 0): -0.1201 | 10 uM KAM ([8]; relative to 0 uM KAM = 0): -0.1434 | median Log10 fold change ([9]; 0.001 uM KAM): -0.02328 | median Log10 fold change ([9]; 0.01 uM KAM): -0.03535 | median Log10 fold change ([9]; 0.1 uM KAM): -0.1377 | median Log10 fold change ([9]; 1 uM KAM): -0.1636 | median Log10 fold change ([9]; 10 uM KAM): -0.4501 | pIC50 [9, 13]: 5.50 | pIC50 [10, 12]: < 5.00 | 0.001 uM KAM ([10]; relative to 0 uM KAM = 0): -0.0607 | 0.01 uM KAM ([10]; relative to 0 uM KAM = 0): -0.006672 | 0.1 uM KAM ([10]; relative to 0 uM KAM = 0): -0.08063 | 1 uM KAM ([10]; relative to 0 uM KAM = 0): -0.07367 | 10 uM KAM ([10]; relative to 0 uM KAM = 0): -0.1223 | pIC50 [11]: 6.36
